In patent publication US10047041B2, “Amino-phenyl-sulfonyl-acetate derivatives and use thereof” (CJ Healthcare Corporation, priority 2014, dated 2018):

System: ICR mice
Assay: Oral glucose tolerance test (OGTT) in ICR mice
Assay type: in vivo
Conditions: normal fasted ICR mice; oral 50, 20, 5 and 1 mg/kg in 0.5% methylcellulose; glucose 2 g/kg; student's t-test p<0.05
Protocol: In order to evaluate the ability to control blood glucose in the body for the compound according to the present invention, an oral glucose tolerance test was conducted using ICR mice. The day before the test, normal ICR mice were separated into four per group, and were fasted for at least 16 hours. The body weight of each mouse was measured and recorded in the morning on the day of the test; The compound was prepared in a concentration of 5 mg/mL in 0.5% methylcellulose such that it could be administered at a dose of 50 mg/kg, and was then further diluted to be in concentrations of […] and administered at the same volume such that it can be administered at doses of 20 mg/kg, 5 mg/kg, and 1 mg/kg. Glucose was dissolved in drinking water and prepared in a concentration of 200 mg/mL such that it could be administered at a dose of 2 g/kg. Before administering the compounds, a small amount of blood of the mice was drawn from the caudal vein, and blood glucose was measured using ACCU-CHEK Active (Art. No. 2248891001), a blood glucose meter, and recorded. A solvent (0.5% MC) as a vehicle and the compounds prepared above were administered to all mice at a dose of 10 mL per 1 kg of body weight using a sonde. Glucose was further administered, and the blood glucose was measured in each mouse after 0.5 hours, 1 hour, and 2 hours. […]

Compound: Cc1ccccc1-c1cccc(CNc2ccc(S(=O)(=O)CC(=O)O)cc2)c1 [Example 1, 2-(4-((2′-methyl-biphenyl-3-yl)methylamino)phenylsulfonyl)acetic acid]
- effect of lowering blood glucose (glucose AUC0-2 hr after glucose administration): significant effect of lowering blood glucose
